Assay results published in publication PMC9822940, “Antiplasmodial activity, structure–activity relationship and studies on the action of novel benzimidazole derivatives” (Scientific Reports, 2023).
Where “and” joins values, the source holds several entries; their conditions need not be identical. Equal entries are not always repeated. Where two headings read alike, the source gives them in different places.

How the values were obtained:
P. falciparum HB3 strain = assay: Antiplasmodial activity against P. falciparum HB3 strain in culture; assay type: cell-based, Plasmodium falciparum; details: for SI (selectivity index): Vero CC50 versus HB3 IC50
Procedure: (§1) In vitro activity of BZ. All BZ derivatives were tested at 10 μM against the HB3 strain of Pf, and for those compounds with a percentage of growth inhibition (% GI) higher than 50%, the IC50 values were determined. In addition, their cytotoxicity on epithelial Vero cell cultures was evaluated to calculate their selectivity indexes (SI), Table 1. An index of 10 or above is expected for a lead compound.
(§2) The chloroquine-sensitive […] and chloroquine-resistance 7G8 strain […] of P. falciparum were used throughout. Infected erythrocytes were kept in culture using the protocol established by Haynes et al.[44], basically utilizing human O^+ erythrocytes kept in an RPMI medium supplemented with glutamine and 10% human serum incubated in an atmosphere of 90% N2, 5% O2 and 5% CO2.

[1] = Cytotoxicity on epithelial Vero cell cultures; assay type: cell-based; details: African green monkey, epithelial Vero cells
Procedure: as §1

[2] = system: plasma membrane of parasite culture / erythrocytes; assay: Propidium iodide incorporation assay (membrane integrity); assay type: cell-based, Plasmodium falciparum; details: 3 h incubation, fluorometry
Procedure: The integrity of the plasma membrane under the action of certain antiplasmodial compounds was assessed through the use of two methodologies. First, the absorption of propidium iodide, to which intact membranes are impermeable, was measured. Second, the presence of heme in the culture media, which indicates a leakage of the contents of the erythrocyte or its complete lysis (hemolysis), was analyzed.
Figure 3 Membrane integrity tests. BZ 1, 5, 16, 26 and 33 were tested in triplicates in two independent experiments. (a) Incorporation of propidium iodide (PI) was analyzed through fluorometry after 3 h incubation with the compounds. (b) Hemolysis was measured by light absorbance 24 h after exposure to the compounds. One-way ANOVA with Turkey´s comparison was used for analysis of significance. ****p < 0.001.
Manufacturer’s instructions (BD PharmingenTM) were followed. Briefly, 200 µL of parasite culture at 2% parasitemia or uninfected erythrocytes, at 2% hematocrit, were incubated with each compound for 3 h at 37 °C. Untreated samples were cultured in the same plate. After incubation, 2 µL of Propidium Iodide was added and incubated for 15 min at RT while protected from light. Fluorescence was read in a fluorometer at excitation and emission wavelengths of 485/20 and 645/40 nm, respectively.

[3] = system: P. falciparum-infected cultures; assay: Intracellular reactive oxygen species (ROS) production in P. falciparum; assay type: cell-based, Plasmodium falciparum; details: 1 µM; 0.5, 6 and 9 h
Procedure: Also, the intracellular production of oxygen reactive species (ROS) was monitored for the same antiplasmodial compounds. The level of ROS production was compared between the samples and that of the untreated parasites. […] This would point to the conformation of such molecules targeting a specific molecule or process of the parasite.  Figure 4 Effect of selected benzimidazole derivatives on ROS production. Five potent compounds were incubated with P. falciparum-infected cultures and the production of reactive oxygen species was measured through fluorometry at 0.5, 6 and 9 h after their addition at 1 µM. As positive control, a sample containing hydrogen peroxide at 200 μM was added. Samples were measured in triplicates. One-way ANOVA with Turkey´s comparison was used to measure significance with respect to the untreated control at each different time point. n = 2. (a) BZ 1, (b) BZ 5, (c) BZ 16, (d) BZ 26 and (e) BZ 33. *p < 0.05, **p < 0.01, ***p < 0.005. Intracellular ROS formation was measured in a fluorimeter using the CM-H2DCFDA reactive dye from Molecular Probes® (Eugene OR, USA). Hydrogen peroxide was used as a positive control at a final concentration of 200 µM. The level of ROS present was inferred through the amount of oxidized DCF[45].

Vero cells = assay: Cytotoxicity on epithelial Vero cell cultures; assay type: cell-based; details: Vero cells
Procedure: as §1

[4] = system: 7G8 P. falciparum parasites; assay: Antiplasmodial activity against chloroquine-resistant 7G8 P. falciparum; assay type: cell-based, Plasmodium falciparum; details: for IC50: Plasmodium falciparum
Text: The mechanism used by Pf to prevent intoxication with free heme once hemoglobin is degraded is to form hemozoin crystals that capture heme. Mefloquine and other common antimalarials interfere with this pathway, resulting in the death of the parasite.
as §2

[5] = Plasmodium falciparum, HB3 strain (chloroquine-sensitive), read-out: IC50
[6] = Plasmodium falciparum, at 10 μM, HB3 strain, read-out: GI (growth inhibition percentage)
[7] = HB3 strain (chloroquine-sensitive), read-out: IC50

| Compound | IC50 (P. falciparum HB3 strain; [5]) [µM] | GI (growth inhibition percentage) (P. falciparum HB3 strain; at 10 μM, HB3 strain) | inhibition at 10 µM (P. falciparum HB3 strain; [6]) [%] | CC50 [1] [µM] | other results |
| --- | --- | --- | --- | --- | --- |
| Cc1ccc2[nH]c(NC(=O)c3cccnc3)nc2c1 [BZ 2] | – | inactive and 0.0% | – | – | – |
| Cc1ccc2[nH]c(NC(=O)c3ccncc3)nc2c1 [BZ 3] | – | inactive and 0.0% | – | – | – |
| Cc1ccc(C(=O)Nc2nc3cc(C)ccc3[nH]2)nc1 [BZ 5, 5-Methyl-N-(5-methyl-1H-benzimidazol-2-yl)picolinamide] | 1.5 | – | 100 | 4.5 | melting point: 256 °C; Membrane integrity: incorporation of propidium iodide [2]: some permeation in the membrane, although not significant; Intracellular ROS production versus untreated parasites [3]: no significant difference at any point |
| Cc1ccc2[nH]c(NC(=O)c3ccc(-c4ccccc4)cn3)nc2c1 [BZ 7] | – | 57.5% | – | – | IC50 (P. falciparum HB3 strain; [7]): 7.8 µM; CC50 (Vero cells): 19.5 µM |
| Cc1ccc2[nH]c(NC(=O)c3ccc(C#N)cn3)nc2c1 [BZ 8] | – | inactive and 37.4% | – | – | – |
| Cc1ccc2[nH]c(NC(=O)c3ccc4ccccc4n3)nc2c1 [BZ 9] | – | 73.1% | – | – | IC50 (P. falciparum HB3 strain; [7]): 14.1 µM; CC50 (Vero cells): 63 µM |
| Cc1ccc2[nH]c(NC(=O)c3ccnc4ccccc34)nc2c1 [BZ 10] | – | 60.5% | – | – | – |
| Cc1ccc2[nH]c(NC(=O)c3nccc4ccccc34)nc2c1 [BZ 11] | – | 0.0% | – | – | – |
| O=C(Nc1nc2cc(Cl)ccc2[nH]1)c1ncccc1Cl [BZ 14] | – | 11.9% | – | – | – |
| CCCCc1ccc(C(=O)Nc2nc3cc(Cl)ccc3[nH]2)nc1 [BZ 17] | – | 89.7% | – | – | IC50 (P. falciparum HB3 strain; [7]): 3.5 µM; CC50 (Vero cells): 3.4 µM |
| Cc1cccc(C(=O)Nc2nc3cc(Cl)ccc3[nH]2)n1 [BZ 19] | – | inactive and 28.0% | – | – | – |
| O=C(Nc1nc2cc(Cl)ccc2[nH]1)c1ccc2ccccc2n1 [BZ 20] | – | 25.9% | – | – | – |
| O=C(Nc1nc2cc(Cl)ccc2[nH]1)c1cnc2ccccc2c1 [BZ 21] | – | 0.0% | – | – | – |
| O=C(Nc1nc2cc(Cl)ccc2[nH]1)c1nccc2ccccc12 [BZ 23] | – | 53.7% | – | – | – |
| COc1ccc2nc(C(=O)Nc3nc4cc(Cl)ccc4[nH]3)ccc2c1 [BZ 24] | – | 22.3% | – | – | – |
| COc1ccc2[nH]c(NC(=O)c3ccccn3)nc2c1 [BZ 25] | – | 50.9% | – | – | – |
| COc1ccc2[nH]c(NC(=O)c3ccc(-c4ccccc4)cn3)nc2c1 [BZ 28] | – | 72.7% | – | – | IC50 (P. falciparum HB3 strain; [7]): 4.4 µM; CC50 (Vero cells): 14.6 µM |
| O=C(Nc1nc2cc([N+](=O)[O-])ccc2[nH]1)c1ccccn1 [BZ 29] | – | 96.0% | – | – | IC50 (P. falciparum HB3 strain; [7]): 5.1 µM; CC50 (Vero cells): 13.9 µM |
| CCCCCCCCC(NC(=O)OC(C)(C)C)C(=O)Nc1ccc2[nH]c(NC(=O)c3ccccn3)nc2c1 (centres unmarked) [BZ 31] | – | – | – | – | IC50 (P. falciparum HB3 strain; [7]): 8.5 µM; CC50 (Vero cells): 26.8 µM |
| CCCCCCCCC(N)C(=O)Nc1ccc2[nH]c(NC(=O)c3ccccn3)nc2c1 (centres unmarked) [BZ 32] | – | – | – | – | IC50 (P. falciparum HB3 strain; [7]): 6.8 µM; CC50 (Vero cells): 16.4 µM |
| CCCCc1ccc(C(=O)Nc2nc3cc(C)c(C)cc3[nH]2)nc1 [BZ 34] | – | 74.2% | – | – | IC50 (P. falciparum HB3 strain; [7]): 3.4 µM; CC50 (Vero cells): 3.2 µM |
| Cc1cc2nc(NC(=O)c3ccc(-c4ccccc4)cn3)[nH]c2cc1C [BZ 35] | – | 64.7% | – | – | IC50 (P. falciparum HB3 strain; [7]): 7.3 µM; CC50 (Vero cells): 9.7 µM |
| CCN(CC)CCCC(C)Nc1ccnc2cc(Cl)ccc12 (centres unmarked) [Chloroquine, reference compound] | – | – | – | – | IC50 (P. falciparum HB3 strain; Plasmodium falciparum, HB3): 0.028 µM; inhibition at 10 µM (P. falciparum HB3 strain; Plasmodium falciparum, HB3, read-out: GI (growth inhibition percentage)): 100%; IC50 ([4]; 7G8, read-out: 7G8 Pf IC50): 0.23 µM |

Second part, led by results:

| IC50 (P. falciparum HB3 strain; [5]) [µM] | Compound | GI (growth inhibition percentage) (P. falciparum HB3 strain; at 10 μM, HB3 strain) | inhibition at 10 µM (P. falciparum HB3 strain; [6]) [%] | CC50 [1] [µM] | other results |
| --- | --- | --- | --- | --- | --- |
| 2.5 | Cc1ccc2[nH]c(NC(=O)c3ncccc3C)nc2c1 [BZ 4, 3-Methyl-N-(5-methyl-1H-benzimidazol-2-yl)picolinamide] | – | 92.4 | 6.8 | SI (selectivity index) (P. falciparum HB3 strain): 2.8; melting point: 173 °C |
| 2.4 | CCCCc1ccc(C(=O)Nc2nc3cc(C)ccc3[nH]2)nc1 [BZ 6, 5-Butyl-N-(5-methyl-1H-benzimidazol-2-yl)picolinamide] | – | 90.9 | 6.6 | SI (selectivity index) (P. falciparum HB3 strain): 2.7; melting point: 245 °C |
| 1.8 | O=C(Nc1nc2cc(Cl)ccc2[nH]1)c1ccccn1 [BZ 12, N-(5-chloro-1H-benzimidazol-2-yl)picolinamide] | – | 91.4 | 15.4 | SI (selectivity index) (P. falciparum HB3 strain): 8.7; IC50 ([4]; 7G8 strain (chloroquine-resistant), read-out: 7G8 Pf IC50): 3.6 µM; SI (selectivity index) ([4]; Vero CC50 versus 7G8 IC50): 4.2 |
| 2.8 | Cc1cccnc1C(=O)Nc1nc2cc(Cl)ccc2[nH]1 [BZ 13, N-(5-Chloro-1H-benzimidazol-2-yl)-3-methylpicolinamide] | – | 87.3 | 8.6 | SI (selectivity index) (P. falciparum HB3 strain): 3.0; melting point: 180 °C |
| 1.5 | COc1ccnc(C(=O)Nc2nc3cc(Cl)ccc3[nH]2)c1 [BZ 15, N-(5-Chloro-1H-benzimidazol-2-yl)-4-methoxypicolinamide] | – | 89.8 | 2 | SI (selectivity index) (P. falciparum HB3 strain): 1.4; melting point: 245 °C |
| 2.3 | O=C(Nc1nc2cc(Cl)ccc2[nH]1)c1ccc(-c2ccccc2)cn1 [BZ 18, N-(5-Chloro-1H-benzimidazol-2-yl)-5-phenylpicolinamide] | – | 99.2 | 0.6 | SI (selectivity index) (P. falciparum HB3 strain): 0.3; melting point: 214 °C |
| 2.3 | O=C(Nc1nc2cc(Cl)ccc2[nH]1)c1ccnc2ccccc12 [BZ 22, N-(5-Chloro-1H-benzimidazol-2-yl)quinoline-4-carboxamide] | – | 88.9 | 16.1 | SI (selectivity index) (P. falciparum HB3 strain): 6.9; melting point: 262 °C |
| 1.2 | CCCCc1ccc(C(=O)Nc2nc3cc(OC)ccc3[nH]2)nc1 [BZ 27, 5-Butyl-N-(5-methoxy-1H-benzimidazol-2-yl)picolinamide] | – | 100 | 8.5 | SI (selectivity index) (P. falciparum HB3 strain): 7.4; melting point: 129 °C |
| 2.4 | O=C(Nc1nc2cc(Cl)c(Cl)cc2[nH]1)c1ccccn1 [BZ 36, N-(5,6-Dichloro-1H-benzimidazol-2-yl)picolinamide] | – | 81.9 | 11.8 | SI (selectivity index) (P. falciparum HB3 strain): 5.0; melting point: 281 °C |
